Experimental data reported in ChEMBL document CHEMBL3132789, “Effect of the 4-substituted phenylalanine moiety of sansalvamide A peptide on antitumor activity” (Medchemcomm, 2014).
Values after ≈ are worked out from the molar mass of the structure shown. Active and inactive are the calls of the source. The calls are words filed in the database; no cut-off is given here. Square brackets hold non-standard residues; d marks the D form. Peptide text beside a SMILES is read from it. Phe(4-Br) = N[C@@H](Cc1ccc(Br)cc1)C(=O)O; Phe(4-Cl) = N[C@@H](Cc1ccc(Cl)cc1)C(=O)O; Phe(4-F) = N[C@@H](Cc1ccc(F)cc1)C(=O)O; Phe(4-I) = N[C@@H](Cc1ccc(I)cc1)C(=O)O; Hica(2S) = CC(C)C[C@H](O)C(=O)O

Tests used:
[1] = system: A549; experiment: Cytotoxicity against human A549 cells assessed as growth inhibition at 20 ug/ml after 72 hrs by [3H]-thymidine uptake assay; format: functional; details: read-out: GI
[2] = system: K562; experiment: Cytotoxicity against human K562 cells assessed as growth inhibition at 20 ug/ml after 72 hrs by [3H]-thymidine uptake assay; format: functional; details: read-out: GI
[3] = system: HCT-15; experiment: Cytotoxicity against human HCT15 cells assessed as growth inhibition at 20 ug/ml after 72 hrs by [3H]-thymidine uptake assay; format: functional; details: read-out: GI
[4] = system: HT-29; experiment: Cytotoxicity against human HT-29 cells assessed as growth inhibition at 20 ug/ml after 72 hrs by [3H]-thymidine uptake assay; format: functional; details: read-out: GI
[5] = system: MDA-MB-231; experiment: Cytotoxicity against human MDA-MB-231 cells assessed as growth inhibition at 20 ug/ml after 72 hrs by [3H]-thymidine uptake assay; format: functional; details: read-out: GI
[6] = system: HCT-116; experiment: Cytotoxicity against human HCT116 cells after 72 hrs by [3H]-thymidine uptake assay; format: functional, cell-based
[7] = Induction of apoptosis in human VSMC cells assessed as morphological changes at 1.8 ug/ml after 24 hrs by light microscopy analysis; format: cell-based
[8] = system: HeLa; experiment: Induction of apoptosis in human HeLa cells assessed as decrease in cell density at 1.8 ug/ml after 24 hrs by light microscopy analysis; format: functional, cell-based
[9] = system: HeLa; experiment: Induction of apoptosis in human HeLa cells assessed as membrane blebbing and nuclear fragmentation at 1.8 ug/ml after 24 hrs by light microscopy analysis; format: functional, cell-based
[10] = system: HeLa; experiment: Induction of apoptosis in human HeLa cells assessed as rounded and smaller cells at 1.8 ug/ml after 24 hrs by light microscopy analysis; format: functional, cell-based
[11] = system: K562; experiment: Cytotoxicity against human K562 cells after 72 hrs by [3H]-thymidine uptake assay; format: functional, cell-based
[12] = system: A549; experiment: Cytotoxicity against human A549 cells after 72 hrs by [3H]-thymidine uptake assay; format: functional, cell-based
[13] = system: HCT-15; experiment: Cytotoxicity against human HCT15 cells after 72 hrs by [3H]-thymidine uptake assay; format: functional, cell-based
[14] = system: HT-29; experiment: Cytotoxicity against human HT-29 cells after 72 hrs by [3H]-thymidine uptake assay; format: functional, cell-based
[15] = system: HeLa; experiment: Cytotoxicity against human HeLa cells after 72 hrs by [3H]-thymidine uptake assay; format: functional, cell-based
[16] = system: MDA-MB-231; experiment: Cytotoxicity against human MDA-MB-231 cells after 72 hrs by [3H]-thymidine uptake assay; format: functional, cell-based
[17] = system: A549; experiment: Cytotoxicity against human A549 cells assessed as growth inhibition at 2 ug/ml after 72 hrs by [3H]-thymidine uptake assay; format: functional; details: read-out: GI
[18] = system: K562; experiment: Cytotoxicity against human K562 cells assessed as growth inhibition at 2 ug/ml after 72 hrs by [3H]-thymidine uptake assay; format: functional; details: read-out: GI
[19] = system: HCT-15; experiment: Cytotoxicity against human HCT15 cells assessed as growth inhibition at 2 ug/ml after 72 hrs by [3H]-thymidine uptake assay; format: functional; details: read-out: GI
[20] = system: HT-29; experiment: Cytotoxicity against human HT-29 cells assessed as growth inhibition at 2 ug/ml after 72 hrs by [3H]-thymidine uptake assay; format: functional; details: read-out: GI
[21] = system: HeLa; experiment: Cytotoxicity against human HeLa cells assessed as growth inhibition at 2 ug/ml after 72 hrs by [3H]-thymidine uptake assay; format: functional; details: read-out: GI
[22] = system: MDA-MB-231; experiment: Cytotoxicity against human MDA-MB-231 cells assessed as growth inhibition at 2 ug/ml after 72 hrs by [3H]-thymidine uptake assay; format: functional; details: read-out: GI

| Compound | inhibition of growth at 20 µg/mL [1] | inhibition of growth at 20 µg/mL [2] | inhibition of growth at 20 µg/mL [3] | inhibition of growth at 20 µg/mL [4] | inhibition of growth at 20 µg/mL [5] | IC50 [6] | other results |
| --- | --- | --- | --- | --- | --- | --- | --- |
| CC(C)C[C@@H]1NC(=O)[C@H](Cc2ccccc2)NC(=O)[C@H](CC(C)C)NC(=O)[C@H](C(C)C)NC(=O)[C@H](CC(C)C)NC1=O (cyclo(FLLVL)) | 26.6% | 45.3% | 23.1% | 21.5% | 23.6% | 0.98 µg/mL (≈ 1.67 µM) | – |
| CC(C)C[C@@H]1NC(=O)[C@H](Cc2ccc(O)cc2)NC(=O)[C@H](CC(C)C)NC(=O)[C@H](C(C)C)NC(=O)[C@H](CC(C)C)NC1=O (cyclo(LLVLY)) | – | – | 52% | 34.6% | 42.5% | – | – |
| CC(C)C[C@@H]1NC(=O)[C@H](Cc2ccc(Br)cc2)NC(=O)[C@H](CC(C)C)NC(=O)[C@H](C(C)C)NC(=O)[C@H](CC(C)C)NC1=O (cyclo([Phe(4-Br)]LLVL)) | – | – | 74.3% | 80.2% | 89.3% | 0.58 µg/mL (≈ 0.873 µM) | – |
| CC(C)C[C@@H]1NC(=O)[C@H](C(C)C)NC(=O)[C@H](CC(C)C)OC(=O)[C@H](CC(C)C)NC(=O)[C@H](Cc2ccccc2)NC1=O (cyclo(FL[Hica(2S)]VL)) | – | – | – | – | – | 9.8 µg/mL (≈ 16.7 µM) | – |
| CC(C)C[C@@H]1NC(=O)[C@H](C(C)C)NC(=O)[C@H](CC(C)C)OC(=O)[C@H](CC(C)C)NC(=O)[C@H](Cc2ccc(I)cc2)NC1=O (cyclo(L[Phe(4-I)]L[Hica(2S)]V)) | – | – | – | – | – | 11.3 µg/mL (≈ 15.9 µM) | – |
| CC(C)C[C@@H]1NC(=O)[C@H](Cc2ccc(F)cc2)NC(=O)[C@H](CC(C)C)NC(=O)[C@H](C(C)C)NC(=O)[C@H](CC(C)C)NC1=O (cyclo(LLVL[Phe(4-F)])) | 30.8% | 58.2% | 21% | 0% | 12.3% | – | – |
| CC(C)C[C@@H]1NC(=O)[C@H](Cc2ccc(I)cc2)NC(=O)[C@H](CC(C)C)NC(=O)[C@H](C(C)C)NC(=O)[C@H](CC(C)C)NC1=O (cyclo(LLVL[Phe(4-I)])) | – | – | – | – | – | 1.12 µg/mL (≈ 1.57 µM) | – |
| CC(C)C[C@@H]1NC(=O)[C@H](C(C)C)NC(=O)[C@H](CC(C)C)OC(=O)[C@H](CC(C)C)NC(=O)[C@H](Cc2ccc(Br)cc2)NC1=O (cyclo(L[Phe(4-Br)]L[Hica(2S)]V)) | – | – | – | – | – | 4.5 µg/mL (≈ 6.76 µM) | – |
| CC(C)C[C@@H]1NC(=O)[C@H](Cc2ccc(Cl)cc2)NC(=O)[C@H](CC(C)C)NC(=O)[C@H](C(C)C)NC(=O)[C@H](CC(C)C)NC1=O (cyclo(LLVL[Phe(4-Cl)])) | 5.2% | 3.57% | 1.21% | 1.23% | 15% | – | – |
| COc1ccc(C[C@@H]2NC(=O)[C@H](CC(C)C)NC(=O)[C@H](C(C)C)NC(=O)[C@H](CC(C)C)NC(=O)[C@H](CC(C)C)NC2=O)cc1 (cyclo(LLVLY(Me))) | 98.2% | 93.8% | 80.8% | 88.5% | 43.2% | – | Activity [7]: Non-toxic; Activity [8]: Active; Activity [9]: Active; Activity [10]: Active; IC50 [11]: 2.87 µM; IC50 [12]: 2.41 µM; IC50 [13]: 3.54 µM; IC50 [14]: 3.38 µM; IC50 [15]: 3.22 µM; IC50 [16]: 11.1 µM; inhibition of growth at 2 µg/mL [17]: 91.3%; inhibition of growth at 2 µg/mL [18]: 86.5%; inhibition of growth at 2 µg/mL [19]: 78.8%; inhibition of growth at 2 µg/mL [20]: 76.4%; inhibition of growth at 2 µg/mL [21]: 50.9%; inhibition of growth at 2 µg/mL [22]: 40.5% |
